pIC50: −log10 of the molar value.
Key:
Rattus norvegicus = assay: In vivo mean occlusion time for the antithrombic activity in rat arterial thrombosis model; assay type: functional
Serine protease 1 [1] = target: T1, Serine protease 1 (Homo sapiens, UniProt P07477); assay: In vitro inhibitory activity against trypsin
Prothrombin = Prothrombin (Homo sapiens, UniProt P00734); assay: In vitro inhibitory activity against thrombin(FIIa)
Serine protease 1 [2] = target: T1, Serine protease 1; assay: In vitro inhibitory activity against trypsin at concentration 100 uM

T1 sequence (P07477 whole entry): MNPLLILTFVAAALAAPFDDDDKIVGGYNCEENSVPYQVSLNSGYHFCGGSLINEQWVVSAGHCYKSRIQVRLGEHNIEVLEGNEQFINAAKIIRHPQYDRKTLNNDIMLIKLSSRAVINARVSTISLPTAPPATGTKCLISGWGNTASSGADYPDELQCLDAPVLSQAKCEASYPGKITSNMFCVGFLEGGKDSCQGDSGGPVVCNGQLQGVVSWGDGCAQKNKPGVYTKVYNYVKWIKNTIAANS

SMILES	MOT (Rattus norvegicus)	pIC50 (Serine protease 1 [1])	pIC50 (Prothrombin)	inhibition (Serine protease 1 [2])
N[C@H]1CC[C@H]([C@H](NC(=O)[C@@H]2CC[C@H]3CN(C(=O)CCc4ccccc4)CC(=O)N32)C(=O)c2nccs2)CC1	48 min	5.05	7.48	
N=C(N)N1CCCC(C[C@@H](NC(=O)[C@@H]2CC[C@H]3CN(C(=O)CCc4ccccc4)CC(=O)N32)C(=O)c2nccs2)C1 (some centres undefined)	27 min	4.50	6.86	
N=C(N)c1cccc(C[C@H](NC(=O)[C@@H]2CC[C@H]3CN(C(=O)CCc4ccccc4)CC(=O)N32)C(=O)c2nccs2)c1	18 min	5.11	7.11	
N=C(N)NCCC[C@H](NC(=O)[C@@H]1CC[C@H]2CN(C(=O)CCc3ccccc3)CC(=O)N21)C(=O)c1nccs1	42 min	> 9.00		
N=C(N)N1CCCC(C[C@H](NC(=O)[C@@H]2CC[C@H]3CN(C(=O)CCc4ccccc4)CC(=O)N32)C(=O)c2nccs2)C1 (some centres undefined)	>60 min	5.36	7.52	
N=C(N)N1CCC([C@@H](NC(=O)[C@@H]2CC[C@H]3CN(C(=O)CCc4ccccc4)CC(=O)N32)C(=O)c2nccs2)CC1			6.82	31%
N=C(N)N1CCC([C@H](NC(=O)[C@@H]2CC[C@H]3CN(C(=O)CCc4ccccc4)CC(=O)N32)C(=O)c2nccs2)CC1	57 min	4.92	9.00	
